In assay [1] the target is T1, EtfAB:bcd (crotonyl-CoA-dependent NADH:ferredoxin oxidoreductase), NADH site on the bifurcating FAD of EtfAB (Megasphaera elsdenii, UniProt G0VLZ5+G0VLZ6).
T1 construct: gene MELS_2127; full-length recombinant EtfAB and bcd, each with C-terminal Strep-II tag, E. coli BL21, mixed equimolar; assignment of Mels_2126 to EtfA and Mels_2127 to EtfB is inferred from the printed order; with Electron transfer flavoprotein subunit alpha; Acyl-CoA dehydrogenase, short-chain specific (butyryl-CoA dehydrogenase)
T1 sequence (G0VLZ6 1-270): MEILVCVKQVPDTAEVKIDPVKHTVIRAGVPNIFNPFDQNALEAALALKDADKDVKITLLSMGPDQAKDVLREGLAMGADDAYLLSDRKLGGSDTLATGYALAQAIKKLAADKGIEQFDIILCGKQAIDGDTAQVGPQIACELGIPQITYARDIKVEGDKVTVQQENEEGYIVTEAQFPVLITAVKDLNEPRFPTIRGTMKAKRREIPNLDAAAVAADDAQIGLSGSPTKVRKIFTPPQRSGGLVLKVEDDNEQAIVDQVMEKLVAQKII
T1 sequence (G0VLZ5 1-338): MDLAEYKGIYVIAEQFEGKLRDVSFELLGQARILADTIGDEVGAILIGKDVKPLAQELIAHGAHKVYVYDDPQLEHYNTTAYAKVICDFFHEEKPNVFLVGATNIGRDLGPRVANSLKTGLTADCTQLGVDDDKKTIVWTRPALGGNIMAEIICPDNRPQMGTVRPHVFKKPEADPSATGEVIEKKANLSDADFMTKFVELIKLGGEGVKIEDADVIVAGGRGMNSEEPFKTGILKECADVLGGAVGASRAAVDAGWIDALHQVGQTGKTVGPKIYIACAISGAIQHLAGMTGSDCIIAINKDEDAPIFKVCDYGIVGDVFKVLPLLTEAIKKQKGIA
T1 sequence (G0VLZ7 1-383 partner): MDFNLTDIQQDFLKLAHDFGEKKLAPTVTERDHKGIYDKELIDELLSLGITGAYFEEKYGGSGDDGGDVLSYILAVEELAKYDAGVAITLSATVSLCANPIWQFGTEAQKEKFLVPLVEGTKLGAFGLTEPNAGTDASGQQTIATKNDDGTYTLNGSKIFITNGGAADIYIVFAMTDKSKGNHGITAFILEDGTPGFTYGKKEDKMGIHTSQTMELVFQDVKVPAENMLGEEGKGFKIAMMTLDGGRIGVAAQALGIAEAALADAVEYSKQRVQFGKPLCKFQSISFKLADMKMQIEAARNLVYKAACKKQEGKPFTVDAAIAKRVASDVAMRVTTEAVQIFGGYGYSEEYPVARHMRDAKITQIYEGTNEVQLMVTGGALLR
Put plainly: stopped-flow at […] nm, hyperbolic fit of kobs of bf FAD reduction. The format is biochemical. The conditions noted are these: oxidized complex, 6.5 μM; 50 mM Tris-HCl, 150 mM NaCl, pH 7.5, 10 °C; anaerobic; no ferredoxin or crotonyl-CoA; fast phase (bf FAD); read-out: apparent Kd.

The target of assay [2] is T2, EtfAB:bcd (crotonyl-CoA-dependent NADH:ferredoxin oxidoreductase), crotonyl-CoA site on bcd (Megasphaera elsdenii, UniProt G0VLZ7).
T2 construct: gene MELS_2128; same complex as P1; bcd freed of persulfide-CoA adduct by dithionite; C-terminal Strep-II tags, E. coli BL21; with Electron transfer flavoprotein subunit alpha; Electron transfer flavoprotein subunit beta
T2 sequence (G0VLZ7 1-383): T1 sequence (G0VLZ7 1-383 partner)
T2 sequence (G0VLZ5 1-338 partner): T1 sequence (G0VLZ5 1-338)
T2 sequence (G0VLZ6 1-270 partner): T1 sequence (G0VLZ6 1-270)
Put plainly: stopped-flow reoxidation of dithionite-reduced complex; charge-transfer absorbance; oxidative titration. As to conditions: fully reduced EtfAB:bcd; 50 mM Tris-HCl, 150 mM NaCl, pH 7.5, 10 °C; anaerobic; no ferredoxin. The format is biochemical.

Regarding `NC(=O)C1=CN([C@@H]2O[C@H](COP(=O)(O)OP(=O)(O)OC[C@H]3O[C@@H](n4cnc5c(N)ncnc54)[C@H](O)[C@@H]3O)[C@@H](O)[C@H]2O)C=CC1` [NADH], the Kd in assay [1] was determined as 43 µM. On to `C/C=C/C(=O)SCCNC(=O)CCNC(=O)[C@H](O)C(C)(C)COP(=O)(O)OP(=O)(O)OC[C@H]1O[C@@H](n2cnc3c(N)ncnc32)[C@H](O)[C@@H]1OP(=O)(O)O` [crotonyl-CoA], for which the “stopped-flow reoxidation of dithionite-reduced complex; charge-transfer absorban” value in assay [2] is “reoxidation of dithionite-reduced EtfAB:bcd6e- by crotonyl-CoA, which exhibits a [crotonyl-CoA]-independent rate constant”.
